Laboratory results from ChEMBL document CHEMBL3046894, “Synthesis and Herbicidal Activity of Pyrimidinyl Salicylic and Thiosalicylic Acids” (J Pestic Sci, 1996).
The source made the active and inactive calls. The rule behind the calls is not given here.

Key:
[1] = tested on: Xanthium strumarium; assay: Pre-emergence herbicidal activity against Xanthium strumarium (cocklebur) assessed as mortality at 1.6 g a.i/10 a; format: functional
[2] = (§1) Post-emergence phytotoxicity against Zea mays (maize) assessed as mortality at 1.6 g a.i/10 a applied 11 days after germination as foliar spray; format: organism-based; conditions: in vivo, 1.6 g a.i/10 a
[3] = tested on: Abutilon theophrasti; assay: Post-emergence herbicidal activity against Abutilon theophrasti (velvetleaf) assessed as mortality at 6.3 g a.i/10 a applied 11 days after germination as foliar spray; format: functional; conditions: 264 h
[4] = tested on: Zea mays; assay: Pre-emergence phytotoxicity against Zea mays (maize) assessed as mortality at 1.6 g a.i/10 a; format: organism-based; conditions: in vivo, other
[5] = tested on: Zea mays; assay: Pre-emergence phytotoxicity against Zea mays (maize) assessed as mortality at 6.3 g a.i/10 a; format: organism-based; conditions: in vivo, other
[6] = (§2) Pre-emergence phytotoxicity against Gossypium hirsutum (cotton) assessed as mortality at 6.3 g a.i/10 a; format: organism-based; conditions: in vivo, 6.3 g a.i/10 a, read-out: Activity
[7] = tested on: Gossypium hirsutum; assay: Pre-emergence phytotoxicity against Gossypium hirsutum (cotton) assessed as mortality at 1.6 g a.i/10 a; format: organism-based; conditions: in vivo, other
[8] = tested on: Ipomoea lacunosa; assay: Pre-emergence herbicidal activity against Ipomoea lacunosa assessed as mortality at 1.6 g a.i/10 a; format: functional
[9] = tested on: Glycine max; assay: Post-emergence phytotoxicity against Glycine max (soybean) assessed as mortality at 1.6 g a.i/10 a applied 11 days after germination as foliar spray; format: organism-based; conditions: in vivo, other, 264 h
[10] = tested on: Glycine max; assay: Post-emergence phytotoxicity against Glycine max (soybean) assessed as mortality at 6.3 g a.i/10 a applied 11 days after germination as foliar spray; format: organism-based; conditions: in vivo, other, 264 h
[11] = tested on: Glycine max; assay: Pre-emergence phytotoxicity against Glycine max (soybean) assessed as mortality at 6.3 g a.i/10 a; format: organism-based; conditions: in vivo, other
[12] = tested on: Glycine max; assay: Pre-emergence phytotoxicity against Glycine max (soybean) assessed as mortality at 1.6 g a.i/10 a; format: organism-based; conditions: in vivo, other
[13] = Post-emergence phytotoxicity against Gossypium hirsutum (cotton) assessed as mortality at 6.3 g a.i/10 a applied 11 days after germination as foliar spray; format: organism-based; conditions: in vivo, 6.3 g a.i/10 a
[14] = Post-emergence phytotoxicity against Gossypium hirsutum (cotton) assessed as mortality at 1.6 g a.i/10 a applied 11 days after germination as foliar spray; format: organism-based; conditions: in vivo, 1.6 g a.i/10 a
[15] = tested on: Zea mays; assay: as §1; format: organism-based; conditions: in vivo, other, 264 h
[16] = tested on: Echinochloa crus-galli; assay: Post-emergence herbicidal activity against Echinochloa crus-galli (barnyard grass) assessed as mortality per 10 acre; format: functional
[17] = tested on: Ipomoea lacunosa; assay: Post-emergence herbicidal activity against Ipomoea lacunosa assessed as mortality per 10 acre; format: functional
[18] = tested on: Xanthium strumarium; assay: Pre-emergence herbicidal activity against Xanthium strumarium (cocklebur) assessed as mortality per 10 acre; format: functional
[19] = tested on: Amaranthus retroflexus; assay: Post-emergence herbicidal activity against Amaranthus retroflexus assessed as mortality per 10 acre; format: functional
[20] = tested on: Persicaria nodosa; assay: Post-emergence herbicidal activity against Persicaria nodosa assessed as mortality per 10 acre; format: functional
[21] = tested on: Gossypium hirsutum; assay: as §2; format: organism-based; conditions: in vivo, other
[22] = tested on: Amaranthus retroflexus; assay: Pre-emergence herbicidal activity against Amaranthus retroflexus assessed as mortality per 10 acre; format: functional
[23] = tested on: Persicaria nodosa; assay: Pre-emergence herbicidal activity against Persicaria nodosa assessed as mortality per 10 acre; format: functional
[24] = tested on: Echinochloa crus-galli; assay: Pre-emergence herbicidal activity against Echinochloa crus-galli (barnyard grass) assessed as mortality per 10 acre; format: functional
[25] = tested on: Ipomoea lacunosa; assay: Pre-emergence herbicidal activity against Ipomoea lacunosa assessed as mortality per 10 acre; format: functional
[26] = tested on: Xanthium strumarium; assay: Post-emergence herbicidal activity against Xanthium strumarium (cocklebur) assessed as mortality per 10 acre; format: functional
[27] = tested on: Gossypium hirsutum; assay: Post-emergence phytotoxicity against Gossypium hirsutum (cotton) assessed as mortality per 10 acre; format: organism-based; conditions: in vivo
[28] = tested on: Gossypium hirsutum; assay: Pre-emergence phytotoxicity against Gossypium hirsutum (cotton) assessed as mortality per 10 acre; format: organism-based; conditions: in vivo
[29] = tested on: Zea mays; assay: Post-emergence phytotoxicity against Zea mays (maize) assessed as mortality at 6.3 g a.i/10 a applied 11 days after germination as foliar spray; format: organism-based; conditions: in vivo, other, 264 h
[30] = tested on: Echinochloa crus-galli; assay: Post-emergence herbicidal activity against Echinochloa crus-galli (barnyard grass) assessed as mortality at 1.6 g a.i/10 a applied 11 days after germination as foliar spray; format: functional; conditions: 264 h
[31] = tested on: Ipomoea lacunosa; assay: Pre-emergence herbicidal activity against Ipomoea lacunosa assessed as mortality at 6.3 g a.i/10 a; format: functional
[32] = tested on: Echinochloa crus-galli; assay: Pre-emergence herbicidal activity against Echinochloa crus-galli (barnyard grass) assessed as mortality at 6.3 g a.i/10 a; format: functional
[33] = tested on: Abutilon theophrasti; assay: Pre-emergence herbicidal activity against Abutilon theophrasti (velvetleaf) assessed as mortality at 1.6 g a.i/10 a; format: functional
[34] = tested on: Abutilon theophrasti; assay: Pre-emergence herbicidal activity against Abutilon theophrasti (velvetleaf) assessed as mortality at 6.3 g a.i/10 a; format: functional

For `COc1cc(OC)nc(Sc2cccc(I)c2C(=O)O)n1`, the Activity [1] was <50%, the mortality at 264 h [2] was > 90% and the mortality at 63 g/ha [3] was > 90%. The Activity [4] was “Toxic”, the Activity [5] was > 90% and the mortality [6] was < 50%. For the same compound, the Activity [7] was < 50%, the Activity [8] was <50% and the Activity [9] was “Toxic”. The Activity [10] was “Toxic”, the Activity [11] was “Toxic” and the Activity [12] was “Non-toxic”. For the same compound, the mortality at 264 h [13] was < 5% and the mortality at 264 h [14] was < 5%.

With `COc1cc(OC)nc(Sc2cccc(Br)c2C(=O)O)n1` the Activity [15] was “Toxic”, the ED90 [16] was 25 gAi and the ED90 [17] was “Active”. For the same compound, the ED90 [18] was 25 gAi, the mortality at 63 g/ha [3] was > 90% and the Activity [4] was “Toxic”. For the same compound, the ED90 [19] was 1.5 gAi, the ED90 [20] was 1.5 gAi and the Activity [5] was “Toxic”. The Activity [21] was “Non-toxic”, the ED90 [22] was 1.5 gAi and the ED90 [23] was “inactive”. For the same compound, the ED90 [24] was 25 gAi, the ED90 [25] was 25 gAi and the Activity [7] was < 50%. The ED90 [26] was “Active”, the Activity [9] was “Toxic” and the ED20 [27] was 50 gAi. For the same compound, the ED20 [28] was 50 gAi, the Activity [10] was “Toxic” and the Activity [11] was “Toxic”. For the same compound, the Activity [12] was “Toxic”, the mortality at 264 h [13] was < 5% and the mortality at 264 h [14] was < 5%.

In the case of `COc1cc(OC)nc(Sc2cccc(C(F)(F)F)c2C(=O)O)n1`, the Activity [15] is reported as “Toxic”, the Activity [29] is reported as “Toxic” and the Activity [4] is reported as “Non-toxic”. For the same compound, the Activity [5] was “Toxic”, the mortality [6] was < 50% and the mortality at 16 g/ha [30] was < 5%. For the same compound, the Activity [31] was <50%, the Activity [7] was < 50% and the Activity [32] was >90%. The Activity [8] was <50%, the Activity [9] was “Toxic” and the Activity [33] was <50%. For the same compound, the Activity [10] was “Toxic”, the Activity [11] was “Toxic” and the Activity [12] was “Non-toxic”. For the same compound, the Activity [34] was <50%, the mortality at 264 h [13] was < 5% and the mortality at 264 h [14] was < 5%.
